The source of these data is patent publication US20240398772A1, “OXASPIRO DERIVATIVE, AND PREPARATION METHOD THEREFOR AND USE THEREOF” (SHUJING BIOPHARMA CO., LTD, priority 2021, published 2024).

One test addresses T1, MOR (Homo sapiens, UniProt P35372).
T1 construct: expressed in transfected cells; host or cells: CHO-K1/OP3 (name from the earlier reading)
Briefly: Agonist test on MOR, cAMP level (CHO-K1/OP3 cells, cAMP assay kit). Format: cell-based. The following applies: for pEC50: forskolin-stimulated cAMP, read-out: EC50 agonizing MOR receptor to affect cAMP level; for Emax: maximal effect of DAMGO is 100%, read-out: Emax agonizing MOR receptor to affect cAMP level. On the procedure:
5×stimulation buffer was diluted to 1× with ddH2O, an appropriate amount of 500 mM IBMX (generally, the IBMX stock solution was prepared to be 500 mM, namely 1000×) was added to enable the final concentration of the IBMX to be 0.5 mM, and the mixture was mixed well for later use (after the IBMX was added, that precipitation occurred was normal, and the precipitate was dissolved by well mixing). It must be prepared right before use.
1.3.1.2 IBMX was dissolved with DMSO to prepare a 500 mM stock solution, which was aliquoted into 20 μL/tube and cryopreserved at −80° C. to avoid repetition of freezing and thawing.
1.3.1.3 Forskolin was dissolved with DMSO to prepare a 10 mM stock solution, which was aliquoted into 20 μL/tube and cryopreserved at −20° C. for later use.
The CAMP standard substance in the kit returned to room temperature, and an equivalent amount of the experimental buffer was added according to the volume marked on the bottle label. The mixture was vortexed for mixing, aliquoted according to 50 μL/tube, and cryopreserved at −20° C. for later use.
5 mL ddH2O was added to a bottle of cAMP-d2 and a bottle of anti-cAMP-cryptate lyophilized powder, respectively, and the mixture was mixed well by gently turning the mixture upside down, aliquoted according to 125, 62.5, and 30 μL, and the like, and cryopreserved in the dark at −80° C.
1.3.2.1 Positive compound DAMGO and the test compound were serially diluted 4-fold to obtain 10 concentrations with Bravo using experimental buffer in a compound plate (Greiner-781280) at a starting concentration of 2 μM (from DMSO stock solution diluted with experimental buffer) and 20 μM (from DMSO stock solution diluted with experimental buffer), respectively.
1.3.2.2 Cells cryopreserved were thawed in a water bath at 37° C., the cell suspension was added to a centrifuge tube containing 10 mL of HBSS buffer, and the mixture was centrifuged at 750 rpm for 5 min. The supernatant was discarded, the pellet was resuspended in an appropriate amount of experimental buffer, and 20 μL of the pellet was counted using a cell counter. An appropriate amount of the cell suspension was diluted to 0.4×10^6 cells/mL, and 5 μL of the cell suspension was added to each well of a cell plate (the cell density was 2000 cells/well) and centrifuged at 1000 rpm for 1 min. 5 μL of the diluted compound was transferred to a cell plate (PerkinElmer-6008280) with Bravo, 5 μL of 2 μM DAMGO (the final concentration was 1 μM) was transferred to positive control wells, and an equal volume of experimental buffer was transferred to negative control wells, and the cell plate was centrifuged at 1000 rpm for 1 min. The cell plate was sealed and incubated at room temperature for 15 min. Forskolin was diluted to 0.2 mM with DMSO, 25.1 nL of which was transferred to a cell plate with Tecan-D300e, and the plate was centrifuged at 1000 rpm for 1 min, sealed, and incubated at room temperature for 45 min.
The final concentration of the initial point was 712 nM.
1.3.2.4 Preparation of detection reagent: an appropriate amount of a cAMP-d2 stock solution and an anti-cAMP-cryptate stock solution was diluted with a lysis buffer according to the ratio of 1:20, the two solutions were then mixed well by turning the solutions upside down according to the ratio of 1:1, and vortexing was prohibited. 10 μL of the prepared detection reagent was added to a cell plate and centrifuged at 1000 rpm for 1 min. The cell plate was incubated at room temperature for 1 h in the dark. After the cell plate was centrifuged at 1000 rpm for 1 min, the plate was read using Envision. Excitation light at 340 nm, emission light at 620 nm and 665 nm.
The formula for calculating the compound activation rate in the agonist test: […]
In general terms: Changes in cAMP serve as a functional read-out for many G protein-coupled receptors.

The next test addresses T2, MOR beta-arrestin (Homo sapiens, UniProt P35372).
T2 construct: expressed in transfected cells; host or cells: MOR beta-arrestin cell strain (U2OS/OPRM1 PathHunter per the earlier reading), kept under Hygromycin B and G418 selection
Briefly: MOR beta-arrestin agonist test (PathHunter, U2OS/OPRM1 cell line). In kind it is cell-based. The settings on record: Human Mu opioid β-arrestin U2OS/OPRM1 cell line; for Emax: maximal effect of DAMGO is 100%, read-out: Emax for activating beta-arrestin signaling pathway; for pEC50: read-out: EC50 for activating beta-arrestin signaling pathway. Here is the method:
• Cell complete medium: MEM+10% FBS+1% PS+250 μg/mL Hygromycin B+500 μg/mL G418 +1×GlutaMAX • Cell inoculation medium: MEM+10% FBS+1% PS • Experimental buffer: 1×DPBS+0.1% BSA • Detection reagent: Galacton Star:Emerald II:PathHunter cell assay buffer=1:5:19
• i) Compound samples were dissolved in DMSO to a stock concentration of 10 mM; • ii) A sample dilution sequence on a 384-well LDV plate was prepared, wherein the first concentration point of the sample was 10 mM (FAC=30 μM), and the sample was serially diluted 3.162-fold to obtain a total of 11 concentration points; • iii) The sample dilution sequence and HPE and ZPE were transferred to a compound plate (PE #6008590) using an Echo machine, with each well 90 nL transferred.
• i) The MOR beta-arrestin cell strain was cultured in a cell complete medium at 37° C. with 5% CO2 to a confluence of 70-90%; • ii) the cells were digested and resuspended in the cell inoculation medium, and 20 μL of the MOR beta-arrestin cell suspension was added to each well of an assay plate (Corning #3570) at 7500 cells/well and incubated in an incubator at 37° C. with 5% CO2 for 24 h; • iii) 30 μL of an experimental buffer was added to a compound plate (PE #6008590), and the plate was centrifuged at 1000 rpm for 5 min; • iv) after 24 h, the assay plate was taken out, the medium was removed from the plate, and then 20 μL of the compound was transferred from each corresponding well of the compound plate to the assay plate with Bravo; • v) the assay plate was centrifuged at 500 rpm for 30 s and then placed into an incubator for incubation at 37° C. with 5% CO2 for 90 min; • vi) 10 μL of the beta-arrestin detection reagent was added to each well of the assay plate; • vii) after 1 h of incubation at room temperature in the dark, the plate was read on Envision.
The experimental data of the percent activation rate and concentrations of 11 points were fitted using XLFit to a parameter nonlinear logic
Use formula to calculate the EC50 value of the compound, and the results are shown in Table 7 (maximal effect of DAMGO is 100%).

For test [1], the system named is pain threshold of a mouse. Briefly: Mouse thermal radiation tail-flick method. In kind it is in vivo, ICR mice. The settings on record: for Maximum analgesic percentage (% MPE): ICR mice, intragastric 10 mg/kg, Mean ± SEM, n = 9-10. Here is the method: • Intragastric administration at a dose of 10 mg/kg;
ICR mice (normal grade, weighed 25-35 g, purchased from Shanghai Slac Laboratory Animal Co., Ltd.) were first mounted in a special plastic cylinder, their tails were exposed and allowed to droop naturally, and the measurements were made after the animals were calm. The radiation heat source could be an 8.75 mm projection lamp (32 W, adjustable). A light beam with the diameter of about 4 mm was emitted after being focused by a lens, which irradiated the skin at the junction of the middle third and the lower third of the tail (the light source and the skin at the tail must be closely attached); an electronic timer connected with the light source in parallel was used to synchronously record the irradiation duration, that is, when the irradiation started, a stopwatch was automatically started at the same time. When the tail of the animal obviously evaded, the timing was automatically stopped. The measured time interval was the tail flick latency. Mice with tail flick latency of 2-6 seconds were screened to participate in a grouping administration experiment. […] After a dose of a drug was administered to the mice, the pain threshold of the mice was measured at different times.
After a dose of a drug was administered to the mice, the pain threshold of the mice was measured at 0.5 h, 1 h, 2 h, and 3 h (effect view of the analgesic effect is shown in FIG. 1). The formula for calculating the maximum analgesic percentage (% MPE) after administration was as follows: % MPE=(post-administration pain threshold−pre-administration pain threshold)/(15−pre-administration pain threshold)×100%.
On the technique in general: Hot-plate and tail-flick tests time the reaction to a heat stimulus.

SMILES strings stand for the structures. pEC50: −log10 of the molar value.

T2 sequence (P35372 whole entry): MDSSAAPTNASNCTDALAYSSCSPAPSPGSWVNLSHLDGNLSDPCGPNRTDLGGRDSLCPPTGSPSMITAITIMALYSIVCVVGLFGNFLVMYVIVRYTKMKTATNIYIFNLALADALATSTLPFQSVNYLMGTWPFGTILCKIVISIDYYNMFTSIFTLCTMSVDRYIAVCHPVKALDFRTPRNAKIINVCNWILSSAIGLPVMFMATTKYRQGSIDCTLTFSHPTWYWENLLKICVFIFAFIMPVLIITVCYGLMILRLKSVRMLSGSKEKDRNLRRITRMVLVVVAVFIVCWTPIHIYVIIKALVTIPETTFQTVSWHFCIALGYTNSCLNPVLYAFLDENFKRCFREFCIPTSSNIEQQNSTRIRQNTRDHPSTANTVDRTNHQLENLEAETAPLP
T1 sequence (P35372 whole entry): as above

The term pEC50 denotes the negative decadic logarithm of the EC50, by convention in mol/L. For orientation: Emax means the greatest response seen or fitted, relative to the assay's reference. Take `Fc1ccc(C2(CCNC3Cc4cccc(Br)c4C3)CCOC3(CCOCC3)C2)nc1` (stereo not drawn) [Compound 10, 4-bromo-N-(2-(4-(5-fluoropyridin-2-yl)-1,9-dioxaspiro[5.5]undecan-4-yl)ethyl)-2,3-dihydro-1H-inden-2-amine]: at MOR, the pEC50 is 8.55 and the Emax worked out at 80.9%. Also, at MOR beta-arrestin, the Emax is 4.5% and the pEC50 is 5.32.
For `c1ccc(C2(CCNC3CCc4ccccc43)CCOC3(CCOCC3)C2)nc1` (stereo not drawn) [Compound 15, N-(2-(4-(pyridin-2-yl)-1,9-dioxaspiro[5.5]undecan-4-yl)ethyl)-2,3-dihydro-1H-inden-1-amine], in that order: 7.51, 96.9%, 7.2% and 5.75.
Consider `Cc1c(Cl)cccc1CNCCC1(c2ccc(F)cn2)CCOC2(CCOCC2)C1` (stereo not drawn) [Compound 12, N-(3-chloro-2-methylbenzyl)-2-(4-(5-fluoropyridin-2-yl)-1,9-dioxaspiro[5.5]undecan-4-yl)ethan-1-amine], for which, on MOR, the pEC50 was 8.12 and the Emax is 89.8%. Further, at MOR beta-arrestin, the Emax was 6.3% and the pEC50 is less than 4.52.
With `Fc1ccc([C@]2(CCNC3Cc4ccccc4C3)CCOC3(CCOCC3)C2)nc1` [Compound 8-1, (R)—N-(2-(4-(5-fluoropyridin-2-yl)-1,9-dioxaspiro[5.5]undecan-4-yl)ethyl)-2,3-dihydro-1H-inden-2-amine], the pEC50 at MOR was 8.39; on MOR beta-arrestin it was less than 4.52. In addition, the figures for the Emax at MOR and on MOR beta-arrestin were 92.8% and 3%, respectively. Further, the “Maximum analgesic percentage (% MPE)” value in test [1] (0.5 h after administration) came out at 80.64 ± 9.27 %; in test [1] (1 h after administration), 85.69 ± 5.95 %; in test [1] (2 h after administration), 69.94 ± 10.43 %; in test [1] (3 h after administration), 87.16 ± 6.80 %. Also, in test [1] (mouse tail flick, 0.5-3 h after administration), the “Maintenance of the analgesic effect compared with oxycodone” value is “maintained for a longer period of time”. Moreover, the “Drug effect compared with oxycodone” value in test [1] (mouse tail flick, same dose (10 mg/kg intragastric)) is listed as “better drug effect than oxycodone”.
Turning to `Fc1ccc([C@]2(CCNCc3cccc(Cl)c3Cl)CCOC3(CCOCC3)C2)nc1` [Compound 13-1, (R)—N-(2,3-dichlorobenzyl)-2-(4-(5-fluoropyridin-2-yl)-1,9-dioxaspiro[5.5]undecan-4-yl)ethan-1-amine], at MOR, the pEC50 was 7.73 and the Emax stood at 78.6%. For the same compound, on MOR beta-arrestin, the maximum response (Emax) worked out at 4.2% and the negative logarithm of the EC50 (pEC50) is less than 4.52.
The corresponding values for `Fc1ccc(C2(CCNC3Cc4ccccc4C3)CCOC3(CCOCC3)C2)nc1` (stereo not drawn) [Compound 8, N-(2-(4-(5-fluoropyridin-2-yl)-1,9-dioxaspiro[5.5]undecan-4-yl)ethyl)-2,3-dihydro-1H-inden-2-amine] are 8.06, 72%, 2.1% and 6.44.
